Results: patent publication US20120309798A1, “Tumour Treatment Agents and Method” (Vivolux AB, priority 2009, published 2012)

Key:
Format in all cases: cell-based
MCF-7 tumor cells = assay: Mode of cell death: time lapse phase contrast microscopy and multiparametric HCS (Arrayscan II)
Procedure: Multiparametric high content screening assays. To study the cell death characteristics a multi-parametric high content screening (HCS) assay was used (Cellomics cytotoxicity HitKit™) and an HCS assay for measurement of apoptosis, which has been described in detail previously (Lovborg et al., 2004). The cells (1500 cells/well) were seeded into flat-bottomed 96-well plates (Perkin Elmer Inc., Wellesley, Mass.) and were left to attach before addition of drugs. For the cytotoxicity assay the cytotoxicity HitKit™ reagents (Cellomics Inc., Pittsburgh, Pa., USA) was used according to the manufacturer's instructions. Multi-parameter cytotoxicity HitKit™ contains a nuclear dye, a cell permeability dye, and a lysosomal mass/pH indicator. In the apoptosis assay FAM-DEVD-FMK (part of the CaspaTag Kit, Chemicon, Temecula, Calif.) at a final concentration of 20 μM was added one hour before the end of the drug exposure to stain activated caspase-3 and partly caspase-7. The staining solution was removed and the plates were washed twice with PBS followed by a 30 min fixation in 3.7% formaldehyde and nuclear staining with 10 μM Hoechst 33342 (Sigma). Plates were then washed twice. The plates were centrifuged before each aspiration to avoid loss of cells detached due to toxic stimuli. Processed plates were kept at +4° C. for up to 24 h before analysis. Plates were analyzed using the ArrayScan™ HCS software (Cellomics Inc). The system is a computerized automated fluorescence-imaging microscope that automatically identifies stained cells and reports the intensity and distribution of fluorescence in individual cells. Images were acquired for each fluorescence channel, using suitable filters with 20× objective. In each well at least 800 cells were analyzed. Images and data were stored in a Microsoft SQL database.
Phase contrast microscopy. Time lapse phase contrast microscopy was performed using an automated Incucyte phase contrast microscope. MCF-7 cells (10,000/well) were plated on 24-well ImageLock plates (Essen Instruments, Ann Arbor, Mich.) and cultured in RPMI 1640 media containing 10% fetal bovine serum and antibiotics. The plates were immediately placed into IncuCyte imaging system (Essen Instruments). The chamber is designed to fit into a standard, humidified, CO2 incubator in an atmosphere of 5% CO2, and a moving objective allows the cell culture to be stationary while images are captured at different positions from well to well. Images were collected at hourly intervals starting 30 minutes after addition of the plate to the IncuCyte-FLR chamber. Drug treatment was performed 24 hours after the plates were placed in the Incucyte. Cell density was calculated using the Incucyte software. […]

MCF-7 cell cultures = assay: Effect of extracellular Fe on VLX50 induced cell death; details: MCF-7, extracellular iron added
[1] = tested on: intracellular free iron in MCF-7 cells; assay: Measurement of intracellular iron (Phen Green); details: MCF-7, Phen Green fluorescent probe, 100 μM or 500 μM
Excerpt: Measurement of intracellular iron. The fluorescent membrane permeable Fe sensor, Phen Green (Invitrogen AB, Göteborg, Sweden) was used to measure changes in intracellular free iron concentration. Fluorescence of the PhenGreen indicators is quenched upon binding Fe^2+ and Fe^3+. The emission intensity of the PhenGreen FL indicator depends on both the metal ion's concentration and the indicator's concentration. MCF-7 cells were harvested and diluted to 500,000 per mL in complete medium, loaded with 10 μM PhenGreen diacetate for 45 minutes and plated to flat-bottomed 96W microtiter plates. The plates were washed ×2 with PBS, resuspended in 180 μl PBS per well and subsequently analyzed by a plate reading fluorometer Fluostar Optima which is programmed to scan fluorescence once a minute for 20 minutes with a break after 5 minutes, during which 20 μl PBS, or VLX50 (100 μM or 500 μM) was added.
Mechanism of action. Mechanistic exploration was performed using gene expression analysis of drug treated tumor cell cultures to generate a drug specific signature. The breast cancer cell line MCF-7 was treated with VLX50 or vehicle (DMSO) and analyzed for gene expression using the Affymetrix U1300plus chip. […] This query signature was subsequently submitted to the GSEA and the Connectivity map databases and strong connections to hypoxia inducible factor (HIF1 alfa) and iron chelators were retrieved. […]

**Q.** `COCCCNC(=S)N/N=C\c1ccccn1` [VLX50, N1-(3-methoxypropyl)-2-(pyridylmethylidene)-hydrazine-1-carbothioamide] was tested. Which Caspase-3 activity (MCF-7 tumor cells; MCF-7, 48-72 h) did it give?
**A.** Its Caspase-3 activity is “increase”.

**Q.** What about the Cell density (MCF-7 tumor cells; MCF-7, 48-72 h) of the same molecule?
**A.** The Cell density was “gradual decrease”.

**Q.** What about the DNA fragmentation (MCF-7 tumor cells; MCF-7, 48-72 h) of the same molecule?
**A.** The DNA fragmentation was “increase”.

**Q.** And the “Effect on growth and viability” value (MCF-7 tumor cells; MCF-7, 24 h)?
**A.** Its value is “little or no effect”.

**Q.** And the “VLX50 activity on adding extracellular iron” value (MCF-7 cell cultures)?
**A.** The value was “dose-dependent decrease”.

**Q.** And the Intracellular iron concentration [1]?
**A.** Its Intracellular iron concentration is “decrease”.
